US20260042734A1, “HETEROCYCLIC RING-SUBSTITUTED AROMATIC COMPOUND, PREPARATION METHOD THEREFOR, AND USE THEREOF” (SHANGHAI HENLIUS BIOTECH, INC., priority 2023, published 2026)

Molecular target: human Kv1.3 (hKv1.3) channels (Homo sapiens (Human), UniProt P22001)
Assay: Electrophysiological (whole-cell patch clamp) determination of inhibitory activity on Kv1.3 channels
Format: cell-based
Conditions: HEK293T cells expressing hKv1.3; for inhibition at 0.01 µM: HEK-293T, compound concentration 10 nM, peak current inhibition, read-out: 10 nM inhibition rate (Kv1.3); for IC50: Hill fit of peak current inhibition
Method: Test Example 1: Determination of Inhibitory Activity of Compounds on Kv1.3 (hKv1.3) Channels
Electrophysiological Testing
Potassium currents were measured using HEK293T cells expressing human Kv1.3 (hKv1.3) channels.
Prior to the start of electrophysiological experiments, Kv1.3 cell lines should be maintained within 70% of the maximum density in the logarithmic growth phase. All reagents should be pre-warmed to 37° C. before use. • 1) Aspirate the spent medium from the 6 cm culture dish. • 2) Add 1 mL of PBS, gently rock the dish to rinse the bottom, and then remove the PBS. • 3) Add 1 mL of trypsin, and gently rock the dish to ensure the trypsin covers all the cells. • 4) Incubate at 37° C. for 2-3 minutes, and then gently pipette the cells to suspend the adherent cells. • 5) Transfer the cell suspension to a new centrifuge tube and centrifuge at 1000 rpm for 5 minutes. Adjust the cell concentration to 2×10^3 cells/mL, and then seed 300 μL of the cell suspension into each well of a 24-well plate containing cell climbing slides. Perform patch clamp experiments after the cells adhered properly.
The intracellular and extracellular solutions used were designed to mimic the cell physiological ionic composition.
Kv1.3 extracellular solution: 137 mM NaCl, 1 mM MgCl2·6H2O, 4 mM KCl, 1.8 mM CaCl2·2H2O, 10 mM D-Glucose, 10 mM HEPES, pH adjusted to 7.4 with NaOH.
Kv1.3 intracellular solution: 140 mM KCl, 10 mM EGTA, 5 mM MgCl2·6H2O, 10 mM HEPES, […], pH adjusted to 7.2 with KOH.
Test Compound Dissolution
• 1) The test compound was dissolved in DMSO to prepare a 30 mM stock solution. • 2) The stock solution of the test compound was serially diluted with DMSO to obtain secondary stock solutions at concentrations of 300 μM, 100 μM, 30 μM, 10 μM, and 3 μM. • 3) 10 μL of each secondary stock solution was diluted into 10 mL of extracellular solution to achieve final concentrations of 300 nM, 100 nM, 30 nM, 10 nM, and 3 nM for electrophysiological testing.
Kv1.3 potassium current data were collected and stored on a computer using Patchmaster software via an EPC-10 amplifier. • 1) The cell climbing slide was removed from the cell culture dish using forceps, immersed with extracellular solution, and placed into the bath chamber on the stage of an inverted microscope. • 2) Glass micropipettes were pulled using a P-1000 micropipette puller, filled one-third of their volume with intracellular solution, and then mounted onto an electrode holder. • 3) Using a motorized micromanipulator (Scientifica-Double 1U), the recording electrode was brought into contact with the cell surface. […] The positive pressure was removed, and a negative pressure of 0.5 cm H2O was applied. It was observed that the sealing resistance increased rapidly until it reached the gigaseal. When the sealing resistance between the recording electrode and the cell membrane was >1 GΩ, negative pressure was applied to rupture the membrane to form the whole-cell recording mode. After the ruptured membrane stabilized, the membrane capacitance (Cs) and series resistance (Rs) were compensated. • 4) Stimulation procedure: the cell was voltage-clamped at −80 mV, depolarized to 40 mV for a duration of 200 ms, and then repolarized to −80 mV. Currents were recorded every 10 s. • 5) Kv1.3 potassium channel currents were recorded at room temperature prior to drug application. After the control current value reached a steady state (indicated by overlapping of the four most consecutive current traces), cumulative drug application was performed. The negative control (0.1% DMSO) was applied first, followed by […] of the drugs.
Raw Kv1.3 current peak data were extracted from PatchMaster software. The current inhibition rate was calculated as follows: Peak current inhibition rate=((1−(Peak current compound)/(Peak current vehicle))). […]

Chain of human Kv1.3 (hKv1.3) channels (P22001 whole entry): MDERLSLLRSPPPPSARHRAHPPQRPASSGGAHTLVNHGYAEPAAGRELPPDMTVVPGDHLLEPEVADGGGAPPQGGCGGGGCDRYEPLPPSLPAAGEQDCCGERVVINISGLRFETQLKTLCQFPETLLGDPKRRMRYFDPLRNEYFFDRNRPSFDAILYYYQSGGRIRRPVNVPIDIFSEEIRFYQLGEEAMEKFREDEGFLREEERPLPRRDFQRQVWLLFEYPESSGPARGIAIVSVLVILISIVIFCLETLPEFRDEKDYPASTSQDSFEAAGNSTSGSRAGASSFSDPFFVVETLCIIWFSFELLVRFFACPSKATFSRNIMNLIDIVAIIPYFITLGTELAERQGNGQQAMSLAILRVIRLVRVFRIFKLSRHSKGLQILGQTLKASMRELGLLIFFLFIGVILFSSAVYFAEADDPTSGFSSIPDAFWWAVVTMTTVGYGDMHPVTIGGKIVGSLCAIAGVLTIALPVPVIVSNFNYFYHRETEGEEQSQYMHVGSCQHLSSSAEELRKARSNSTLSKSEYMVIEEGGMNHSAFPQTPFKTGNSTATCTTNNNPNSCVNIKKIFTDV

| Compound | inhibition at 0.01 µM [%] | IC50 [µM] |
| --- | --- | --- |
| COc1ccc(N2CC(c3c(O)ccc(Cl)c3Cl)CC2=S)cn1 (racemic) [Compound 165, rac-4-(2,3-dichloro-6-hydroxyphenyl)-1-(6-methoxypyridin-3-yl)pyrrolidine-2-thione] | 0 to 5 | – |
| COc1cc(N2CC(c3c(O)ccc(Cl)c3Cl)CC2=S)ccn1 (racemic) [Compound 166, rac-4-(2,3-dichloro-6-hydroxyphenyl)-1-(2-methoxypyridin-4-yl)pyrrolidine-2-thione] | 0 to 5 | – |
| Cc1cc(N2CC(c3c(O)ccc(Cl)c3Cl)CC2=S)ccn1 (racemic) [Compound 167, rac-4-(2,3-dichloro-6-hydroxyphenyl)-1-(2-methylpyridin-4-yl)pyrrolidine-2-thione] | 0 to 5 | – |
| O=C1N(CCCO)CC(c2c(O)ccc(Cl)c2Cl)C1(F)F (racemic) [Compound 168, rac-4-(2,3-dichloro-6-hydroxyphenyl)-3,3-difluoro-1-(3-hydroxypropyl)pyrrolidin-2-one] | < 0 | – |
| O=C1N(CCCO)CC(c2c(O)ccc(Cl)c2Cl)C12CC2 (racemic) [Compound 169, rac-7-(2,3-dichloro-6-hydroxyphenyl)-5-(3-hydroxypropyl)-5-azaspiro[2.4]heptan-4-one] | < 0 | – |
| Cn1cncc1N1CC(c2c(O)ccc(Cl)c2Cl)CC1=S (stereo not shown) [Compound 42, 4-(2,3-Dichloro-6-hydroxyphenyl)-1-(1-methyl-1H-imidazol-5-yl)pyrrolidine-2-thione] | < 0 | – |
| Cc1ncc(N2CC(c3c(O)ccc(Cl)c3Cl)CC2=S)s1 (stereo not shown) [Compound 43, 4-(2,3-Dichloro-6-hydroxyphenyl)-1-(2-methylthiazol-5-yl)pyrrolidine-2-thione] | 0 to 5 | – |
| CS(=O)(=O)NCCCN1CC(c2c(O)ccc(Cl)c2Cl)CC1=O (stereo not shown) [Compound 76, N-(3-(4-(2,3-Dichloro-6-hydroxyphenyl)-2-oxopyrrolidin-1-yl)propyl)methanesulfonamide] | 0 to 5 | – |
| NS(=O)(=O)CCN1CC(c2c(O)ccc(Cl)c2Cl)CC1=O (stereo not shown) [Compound 77, 2-(4-(2,3-Dichloro-6-hydroxyphenyl)-2-oxopyrrolidin-1-yl)ethane-1-sulfonamide] | 0 to 5 | – |
| CS(=N)(=O)CCN1CC(c2c(O)ccc(Cl)c2Cl)CC1=O (stereo not shown) [Compound 78, 4-(2,3-Dichloro-6-hydroxyphenyl)-1-(2-(S-methylsulfonylimino)ethyl) pyrrolidin-2-one] | 0 to 5 | – |
| CS(=O)(=O)CCN1CC(c2c(O)ccc(Cl)c2Cl)CC1=O (stereo not shown) [Compound 79, 4-(2,3-Dichloro-6-hydroxyphenyl)-1-(2-(methylsulfonyl)ethyl)pyrrolidin-2-one] | < 0 | – |
| C=Cn1cc(N2CC(c3c(O)ccc(Cl)c3Cl)CC2=O)cn1 (stereo not shown) [Compound 90, 4-(2,3-Dichloro-6-hydroxyphenyl)-1-(1-vinyl-1H-pyrazol-4-yl)pyrrolidin-2-one] | 50 to 75 | – |
| O=C1CC(c2c(O)ccc(Cl)c2Cl)CN1C1CC2(CNC2)C1 (stereo not shown) [Compound 100, 4-(2,3-Dichloro-6-hydroxyphenyl)-1-(2-azaspiro[3.3]heptan-6-yl)pyrrolidin-2-one] | ≥ 75 | – |
| NC1CC2(C1)CC(N1CC(c3c(O)ccc(Cl)c3Cl)CC1=O)C2 (stereo not shown) [Compound 101, 1-(6-Aminospiro[3.3]heptan-2-yl)-4-(2,3-dichloro-6-hydroxyphenyl) pyrrolidin-2-one] | 50 to 75 | – |
| CONCCCN1CC(c2c(O)ccc(Cl)c2Cl)CC1=O (stereo not shown) [Compound 104, 4-(2,3-Dichloro-6-hydroxyphenyl)-1-(3-(methoxyamino)propyl)pyrrolidin-2-one] | 0 to 5 | – |
| CON(C)CCCN1CC(c2c(O)ccc(Cl)c2Cl)CC1=O (stereo not shown) [Compound 105, 4-(2,3-Dichloro-6-hydroxyphenyl)-1-(3-(methoxy(methyl)amino)propyl) pyrrolidin-2-one] | < 0 | – |
| NC(=S)CCN1CC(c2c(O)ccc(Cl)c2Cl)CC1=O (stereo not shown) [Compound 113, 3-(4-(2,3-Dichloro-6-hydroxyphenyl)-2-oxopyrrolidin-1-yl)propanethioamide] | < 0 | – |
| N=C(N)CCN1CC(c2c(O)ccc(Cl)c2Cl)CC1=O (stereo not shown) [Compound 114, 3-(4-(2,3-Dichloro-6-hydroxyphenyl)-2-oxopyrrolidin-1-yl)propionimide] | 0 to 5 | – |
| O=C(CCN1CC(c2c(O)ccc(Cl)c2Cl)CC1=O)NO (stereo not shown) [Compound 115, 3-(4-(2,3-Dichloro-6-hydroxyphenyl)-2-oxopyrrolidin-1-yl)-N-hydroxypropionamide] | 25 to 50 | – |
| CN(O)C(=O)CCN1CC(c2c(O)ccc(Cl)c2Cl)CC1=O (stereo not shown) [Compound 116, 3-(4-(2,3-Dichloro-6-hydroxyphenyl)-2-oxopyrrolidin-1-yl)-N-hydroxy-N-methylpropionamide] | < 0 | – |
| CONC(=O)CCN1CC(c2c(O)ccc(Cl)c2Cl)CC1=O (stereo not shown) [Compound 117, 3-(4-(2,3-Dichloro-6-hydroxyphenyl)-2-oxopyrrolidin-1-yl)-N-methoxypropionamide] | 0 to 5 | – |
| O=C1CC(c2c(O)ccc(Cl)c2Cl)CN1CCNO (stereo not shown) [Compound 118, 4-(2,3-Dichloro-6-hydroxyphenyl)-1-(2-(hydroxyamino)ethyl)pyrrolidin-2-one] | 25 to 50 | – |
| NOCCN1CC(c2c(O)ccc(Cl)c2Cl)CC1=O (stereo not shown) [Compound 119, 1-(2-(Aminooxy)ethyl)-4-(2,3-dichloro-6-hydroxyphenyl)pyrrolidin-2-one] | 0 to 5 | – |
| NOCCCN1CC(c2c(O)ccc(Cl)c2Cl)CC1=O (stereo not shown) [Compound 120, 1-(3-(Aminooxy)propyl)-4-(2,3-dichloro-6-hydroxyphenyl)pyrrolidin-2-one] | < 0 | – |

Now from value to compound:

| inhibition at 0.01 µM [%] | IC50 [µM] | Compound |
| --- | --- | --- |
| – | 0.005 to 0.01 | OCCCN1C[C@H](c2c(O)ccc(Cl)c2Cl)CC1=S [Compound 1-1, (S)-4-(2,3-Dichloro-6-hydroxyphenyl)-1-(3-hydroxypropyl)pyrrolidine-2-thione] |
| – | 0.01 to 0.03 | OCC(F)(F)CN1C[C@H](c2c(O)ccc(Cl)c2Cl)CC1=S [Compound 121-1, (S)-4-(2,3-Dichloro-6-hydroxyphenyl)-1-(2,2-difluoro-3-hydroxypropyl)pyrrolidine-2-thione] |
| – | 0.005 to 0.01 | Oc1ccc(Cl)c(Cl)c1[C@@H]1CC(=S)N([C@H]2C[C@H](O)C2)C1 [Compound 124-1, (S)-4-(2,3-Dichloro-6-hydroxyphenyl)-1-((1r,3r)-3-hydroxycyclobutyl)pyrrolidine-2-thione] |
| – | ≤ 0.005 | Oc1ccc(Cl)c(Cl)c1[C@@H]1CC(=S)N(C[C@H]2C[C@H](O)C2)C1 [Compound 129-1, (S)-4-(2,3-Dichloro-6-hydroxyphenyl)-1-(((1r,3r)-3-hydroxycyclobutyl)methyl)pyrrolidine-2-thione] |
| – | ≤ 0.005 | OCCCCN1C[C@H](c2c(O)ccc(Cl)c2Cl)CC1=S [Compound 130-1, (S)-4-(2,3-Dichloro-6-hydroxyphenyl)-1-(4-hydroxybutyl)pyrrolidine-2-thione] |
| – | 0.005 to 0.01 | Oc1ccc(Cl)c(Cl)c1[C@@H]1CC(=S)N(c2cnn3c2CCC3)C1 [Compound 159-1, (S)-4-(2,3-Dichloro-6-hydroxyphenyl)-1-(5,6-dihydro-4H-pyrrolo[1,2-b]pyrazol-3-yl)pyrrolidine-2-thione] |
| 25 to 50 | 0.01 to 0.03 | O=C1C[C@@H](c2c(O)ccc(Cl)c2Cl)CN1CCCO [Compound W1, reference compound] |
| – | 0.01 to 0.03 | NCCCN1C[C@H](c2c(O)ccc(Cl)c2Cl)CC1=O [Compound W2, reference compound] |
| – | ≤ 0.005 | (S)-4-(2,3-Dichloro-6-hydroxyphenyl)-1-(1- methyl-1H-pyrazol-4-yl)pyrrolidine-2- thione [Compound 40-1] |
